Square brackets hold non-standard residues; d marks the D form. Ends that are not written are not given here. Peptide text beside a SMILES is read from it. hArg = N=C(N)NCCCC[C@H](N)C(=O)O; Aib = CC(C)(N)C(=O)O
Tests used:
PTHR1GFP = test: cAMP induction in HEK293 cells stably expressing PTHR1GFP; format: cell-based, human
Method: The GFP-PTHR1 fusion was stably expressed in cells that respond to receptor engagement by activation of a cAMP-sensitive version of luciferase. Exposure of these transfectants to PTH(1-11) yielded the expected dose-response curve with half maximal stimulation at ˜200 nM.
(§1) Measurement of cAMP response. These assays were performed as previously described^27. Briefly, HEK-293-derived cell lines that stably express the Glosensor cAMP reporter (Promega Corp.)^30 and PTHR1, a PTHR1 variant, or PTHR2 were seeded into white sided 96 well plates (50,000 cells/well) and grown to confluency. Confluent monolayers of cells were pre-incubated with CO2 independent medium containing D-luciferin (0.5 mM) at 37° C. until a stable baseline level of luminescence was established (20 min). Varying concentrations of ligands were then added, and the time course of luminescence response was recorded using BioTek plate reader. The maximal luminescence response (observed 12-16 min after ligand addition) was used to construct dose-response data sets (Table 4, FIGS. 22A to 22E).
(§2) Data calculations. Data were processed using Microsoft Excel and GraphPad Prism 6. Data from cAMP dose-response assays were analyzed using a sigmoidal dose-response model with variable slope. Data sets were statistically compared by using Student's t test (two-tailed) assuming unequal variances for the two sets.
(§3) While there is no structural information for any VHH bound to PTHR1, a mode of interaction was envisioned between the receptor and VHH-PTH conjugates like that depicted in FIG. 12—Panel c. The portion of PTHR1 encoded by exon 2 is not resolved in structural studies (FIG. 12—Panel d)^13, 14, 17, is not important for ligand binding^18, and in past work has been targeted as a site for receptor modification^18, 19. A construct was generated that encodes a PTHR1 variant in which a 14-residue fragment from exon 2 was replaced with a 14-mer epitope tag from the intracellular protein UBC6e (PTHR16E, FIG. 12—Panel d)^20. A receptor construct in which a pH-sensitive green fluorescent protein variant (GFP) was inserted into the portion of the receptor encoded by exon 2 (PTHR1GFP in FIGS. 17A to 17C)^19. Another version of PTHR1 in which yellow fluorescent protein (YFP) replaces the entire extracellular domain (PTHR1YFPΔECD, FIG. 12—Panel e)^21, was also used.

PTHR1YFPΔECD = test: cAMP induction in HEK293 cells stably expressing PTHR1YFPΔECD (YFP replaces extracellular domain); format: cell-based, human
Method: as §1, with “reader.” for “reader. The maximal luminescence response (observed 12-16 min after ligand addition) was used to construct dose-response data sets (Table 4, FIGS. 22A to 22E).”
as §2
as §3, with “The” for “While there is no structural information for any VHH bound to PTHR1, a mode of interaction was envisioned between the receptor and VHH-PTH conjugates like that depicted in FIG. 12—Panel c. The”

human PTHR1 = target: T1, human PTHR1 (Homo sapiens, UniProt Q03431); test: cAMP induction (cAMP-responsive luciferase) in HEK293 cells stably expressing human PTHR1; format: cell-based
T1 construct: expressed in transfected cells
T1 sequence (Q03431 27-593): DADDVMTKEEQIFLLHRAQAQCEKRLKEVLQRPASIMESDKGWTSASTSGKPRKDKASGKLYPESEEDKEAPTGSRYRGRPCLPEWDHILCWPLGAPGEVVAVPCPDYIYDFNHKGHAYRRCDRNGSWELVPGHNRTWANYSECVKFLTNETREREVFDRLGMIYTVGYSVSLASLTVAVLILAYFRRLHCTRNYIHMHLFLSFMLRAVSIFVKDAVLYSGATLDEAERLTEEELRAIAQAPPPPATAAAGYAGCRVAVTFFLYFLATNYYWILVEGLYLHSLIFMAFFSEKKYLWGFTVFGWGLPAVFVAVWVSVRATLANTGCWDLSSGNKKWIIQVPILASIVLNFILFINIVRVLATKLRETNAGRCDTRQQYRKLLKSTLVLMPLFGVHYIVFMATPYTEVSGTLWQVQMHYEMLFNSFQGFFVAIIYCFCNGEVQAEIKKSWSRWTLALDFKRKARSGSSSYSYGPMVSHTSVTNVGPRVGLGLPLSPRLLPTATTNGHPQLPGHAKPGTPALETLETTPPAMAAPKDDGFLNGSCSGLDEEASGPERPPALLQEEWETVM
Method: (§4) Measurement of cAMP response. These assays were performed as previously described^27. […] Confluent monolayers of cells were pre-incubated with CO2 independent medium containing D-luciferin (0.5 mM) at 37° C. until a stable baseline level of luminescence was established (20 min). Varying concentrations of ligands were then added, and the time course of luminescence response was recorded using BioTek plate reader.
as §2

PTHR16E = target: T2, PTHR16E (Homo sapiens, UniProt Q03431, A83I/D81R/G76A/K80A/K82Q/P78E/R79L/S71Q/S73D/S75E/T74Q); test: cAMP induction in HEK293 cells stably expressing PTHR16E (6E/Ubc6e epitope tag in exon 2 segment); format: cell-based
T2 construct: expressed in transfected cells
T2 sequence (Q03431 27-593 S71Q/S73D/T74Q/S75E/G76A/P78E/R79L/K80A/D81R/K82Q/A83I): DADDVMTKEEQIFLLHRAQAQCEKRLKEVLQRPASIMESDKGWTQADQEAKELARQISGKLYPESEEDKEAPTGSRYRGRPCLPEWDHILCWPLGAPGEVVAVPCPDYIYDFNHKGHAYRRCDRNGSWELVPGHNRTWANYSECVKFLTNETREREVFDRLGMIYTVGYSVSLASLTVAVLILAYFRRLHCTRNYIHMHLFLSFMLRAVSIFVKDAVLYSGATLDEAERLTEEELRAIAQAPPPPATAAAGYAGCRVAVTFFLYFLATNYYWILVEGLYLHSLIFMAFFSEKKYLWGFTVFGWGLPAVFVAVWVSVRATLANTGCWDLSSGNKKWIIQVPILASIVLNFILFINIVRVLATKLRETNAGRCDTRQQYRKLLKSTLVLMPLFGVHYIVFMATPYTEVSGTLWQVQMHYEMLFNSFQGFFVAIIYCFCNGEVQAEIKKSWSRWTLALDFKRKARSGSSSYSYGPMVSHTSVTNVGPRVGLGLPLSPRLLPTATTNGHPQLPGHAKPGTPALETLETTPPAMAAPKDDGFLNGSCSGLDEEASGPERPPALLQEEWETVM
Method: as §1, with “reader.” for “reader. The maximal luminescence response (observed 12-16 min after ligand addition) was used to construct dose-response data sets (Table 4, FIGS. 22A to 22E).”
as §2
as §3, with “The” for “While there is no structural information for any VHH bound to PTHR1, a mode of interaction was envisioned between the receptor and VHH-PTH conjugates like that depicted in FIG. 12—Panel c. The”

PTHR2 [1] = target: T3, PTHR2 (Homo sapiens, UniProt P49190); test: cAMP induction in HEK293 cells stably expressing human PTHR2; format: cell-based
T3 construct: expressed in transfected cells
T3 sequence (P49190 25-550): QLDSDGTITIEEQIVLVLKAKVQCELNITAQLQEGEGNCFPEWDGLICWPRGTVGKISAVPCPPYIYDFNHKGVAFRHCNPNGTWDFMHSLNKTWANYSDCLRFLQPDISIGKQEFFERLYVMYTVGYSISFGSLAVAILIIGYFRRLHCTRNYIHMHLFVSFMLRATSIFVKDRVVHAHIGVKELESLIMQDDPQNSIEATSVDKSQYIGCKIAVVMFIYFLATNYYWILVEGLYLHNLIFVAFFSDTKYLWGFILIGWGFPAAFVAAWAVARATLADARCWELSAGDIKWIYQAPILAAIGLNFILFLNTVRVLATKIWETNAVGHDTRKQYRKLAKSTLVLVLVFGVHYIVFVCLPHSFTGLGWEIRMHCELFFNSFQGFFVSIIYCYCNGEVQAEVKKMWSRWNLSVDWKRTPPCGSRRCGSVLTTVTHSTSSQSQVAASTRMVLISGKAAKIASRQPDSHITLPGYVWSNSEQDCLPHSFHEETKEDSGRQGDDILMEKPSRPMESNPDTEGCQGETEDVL
Method: as §4, §2

Mice (CD1 female) = test: Calcemic response: blood ionized calcium in mice after subcutaneous injection; format: in vivo, mouse; details: 35 nmol/kg subcutaneous, n=4
Method: Animal experiments and measurement of in vivo response. Mice (CD1 female, age 11 weeks) were treated in accordance with the ethical guidelines adopted by Massachusetts General Hospital. […] Peptides and conjugates were administered at doses that allowed for differentiation between compounds with differing levels of in vivo activity^27. Statistical analyses were performed assuming Gaussian distribution of data. Mice (n=4 per compound) were injected subcutaneously with vehicle (10 mM citric acid/150 mM NaCl/0.05% Tween-80, pH 5.0) or vehicle containing PTH or conjugate at a dose of 35 nmol/kg body weight. […] Blood was withdrawn just before injection (t=0) or at times thereafter. Tail vein blood was collected and immediately analyzed. Blood Ca^2+ concentration was measured with a Siemens RapidLab 348 Ca2+/pH analyzer.

PTHR2 [2] = target: T3, PTHR2; test: Flow cytometry staining by VHH-Alexafluor647 of HEK293 cells expressing PTHR2; format: binding; details: 100 nM VHH
Method: Flow cytometry. Suspensions of cells in PBS were stained for 1 hour on ice in the presence of indicated concentrations of VHH probes functionalized with Alexafluor647. Cells were pelleted by centrifugation and washed with PBS prior to analysis by flow cytometry (BD Accuri C6). Gating was performed on forward scatter/side scatter profiles to analyze intact cells. Data was analyzed using FlowJo version 7.6. The median fluorescent intensity (MFI) of stained cells was used to generate VHH binding dose response curves (FIG. 20).

[3] = mean ± SD, Inactive = response <5% of maximal
[4] = maximal cAMP response, normalized

With “modified N-terminal PTH fragment with Aib3, amide; probably AV(Aib)EIQLMH (SEQ ID NO: 86) [PTH(1-9)]” the “EC50, cAMP induction, hPTHR1GFP” value (PTHR1GFP; [3]) was “Inactive at 10,000 nM”, the “activation of PTHR1 with ECD replaced by fluorescent protein (in words)” value (PTHR1YFPΔECD) was “inactive alone” and the “EC50, cAMP induction, hPTHR1YFPΔECD” value (PTHR1YFPΔECD; [3]) was “Inactive at 10,000 nM”. The “EC50, cAMP induction, hPTHR1” value (human PTHR1; mean ± SD, Inactive = response <5% of maximal response at that concentration) was “Inactive at 10,000 nM” and the “EC50, cAMP induction, PTHR16E” value (PTHR16E; [3]) was “Inactive at 10,000 nM”.

With TIP 39 the “activation of human PTHR2 (in words)” value (PTHR2 [1]) was “activated”.

In the case of “M-PTH(1-14): UVUEIQLMHQXAKW (SEQ ID NO: 90) where U is Aib and X is homoarginine ([Aib]V[Aib]EIQLMHQ[hArg]AKW; not fully specified (C-terminus))”, the “blood ionized calcium response” value (Mice (CD1 female)) is reported as “little if any activity”.

CC[C@H](C)[C@H](NC(=O)[C@H](CCC(=O)O)NC(=O)C(C)(C)NC(=O)[C@@H](NC(=O)[C@H](C)N)C(C)C)C(=O)N[C@@H](CCC(N)=O)C(=O)N[C@@H](CC(C)C)C(=O)N[C@@H](CCSC)C(=O)N[C@@H](Cc1c[nH]cn1)C(=O)N[C@@H](CCC(N)=O)C(=O)N[C@@H](CCCNC(=N)N)C(=O)N[C@@H](C)C(=O)N[C@@H](CCCCN)C(=O)N[C@@H](Cc1c[nH]c2ccccc12)C(=O)N[C@@H](CS)C(N)=O [PTH(1-14)] (H-AV[Aib]EIQLMHQRAKWC-NH2) was tested, and the “Max (normalized ± SD), hPTHR1GFP” value (PTHR1GFP; [4]) was 1.09 ± 0.03, the EC50 (PTHR1GFP; mean ± SD, Inactive = response <5% of maximal, read-out: EC50, cAMP induction, hPTHR1GFP) was 2.3 ± 1.2 nM and the “Max (normalized ± SD), hPTHR1YFPΔECD” value (PTHR1YFPΔECD; [4]) was 0.96 ± 0.04. The EC50 (PTHR1YFPΔECD; mean ± SD, Inactive = response <5% of maximal, read-out: EC50, cAMP induction, hPTHR1YFPΔECD) was 1.1 ± 0.9 nM, the “activation of wild-type human PTHR1 (in words)” value (human PTHR1) was “activated” and the “Max (normalized ± SD), hPTHR1” value (human PTHR1; [4]) was 1.01 ± 0.07. For the same molecule, the EC50 (human PTHR1; mean ± SD, Inactive = response <5% of maximal response at that concentration, read-out: EC50, cAMP induction, hPTHR1) was 4.3 ± 2 nM, the “Max (normalized ± SD), hPTHR16E” value (PTHR16E; [4]) was 1.06 ± 0.12 and the “activation of human PTHR2 (in words)” value (PTHR2 [1]) was “activated”. The “Max (normalized ± SD), hPTHR2” value (PTHR2 [1]; [4]) was 1.14 ± 0.28 and the EC50 (PTHR2 [1]; mean ± SD, read-out: EC50, cAMP induction, hPTHR2) was 924 ± 328 nM.

B1: VHH05-PTH(1-34): PTH(1-34)-Cys conjugated to nanobody VHH05 (conjugate)
VHH: QVQLQESGGGLVQPGGSLRLSCAASGFVFENSAMAWYRQAPGKERELIAVIGTTFIKLAESVKGRFTISRDNAKSTVYLQMNNLKPEDTAVYYCSKSGAYWGQGTQVTVSS
peptide: SVSEIQLMHNLGKHLNSMERVEWLRKKLQDVHNFC
For B1, the “activation of wild-type human PTHR1 (in words)” value (human PTHR1) was “activates”.

B2: VHH6E: nanobody that recognizes a 14-mer peptide from UBC6e (…), SEQ ID NO: 71 (protein)
VHH: QVQLQESGGGLVQPGGSLRLSCAASGFVFENSAMAWYRQAPGKERELIAVIGTTFIKLAESVKGRFTISRDNAKSTVYLQMNNLKPEDTAVYYCSKSGAYWGQGTQVTVSSLPETGG
With B2 the “binding to PTHR2 (in words)” value (PTHR2 [2]) was “lack of binding”.

Reference: patent US11878063B2, “Engineered ligands and uses thereof” (Children's Medical Center Corporation, priority 2019, dated 2024)
